Where a name gives a salt, the structure may show the parent alone. Read-outs that look alike come from different tables or passages of the source.
Biological target: T1, His6-AspH315–758 (human aspartate/asparagine-β-hydroxylase, AspH) (Homo sapiens, UniProt Q12797)
T1 construct: N-Terminally His6-tagged human AspH315–758 (His6-AspH315–758) was produced in E. coli BL21 (DE3) cells; made in house; host or cells: E. coli BL21 (DE3), pET-28a(+) vector
T1 sequence (Q12797 315-758): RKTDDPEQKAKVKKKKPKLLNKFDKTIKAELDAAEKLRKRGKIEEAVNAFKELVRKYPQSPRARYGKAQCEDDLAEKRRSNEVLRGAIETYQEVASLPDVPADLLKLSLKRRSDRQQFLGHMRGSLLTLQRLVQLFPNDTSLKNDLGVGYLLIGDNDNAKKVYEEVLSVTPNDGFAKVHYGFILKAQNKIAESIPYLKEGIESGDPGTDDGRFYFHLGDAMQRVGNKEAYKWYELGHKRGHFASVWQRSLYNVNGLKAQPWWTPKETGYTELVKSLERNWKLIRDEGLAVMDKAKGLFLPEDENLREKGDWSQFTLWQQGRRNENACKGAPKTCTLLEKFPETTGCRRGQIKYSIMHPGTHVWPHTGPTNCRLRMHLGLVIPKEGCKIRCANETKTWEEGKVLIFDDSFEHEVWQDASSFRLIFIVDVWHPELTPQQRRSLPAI
Assay: SPE-MS AspH inhibition assay (LOPAC screen at fixed 20 μM and IC50 dose-response), hydroxylation of cyclic peptide hFX-CP101–119
Assay type: biochemical
Conditions: for IC50: IC50 [μM]

[1] = LOPAC compound at 20uM, plate 2, conversion of substrate peptide
[2] = LOPAC compound at 20uM, plate 2, normalised to DMSO and 2,4-PDCA controls
[3] = LOPAC compound at fixed 20 uM, plate 1, normalised to DMSO and 2,4-PDCA controls
[4] = LOPAC compound at fixed 20 uM, substrate conversion, plate 1
[5] = LOPAC Plate 4, compound at 20 uM, substrate conversion
[6] = LOPAC Plate 4, compound at 20 uM, read-out: % inhibition
[7] = LOPAC compound at 20uM, plate 3, conversion of substrate peptide
[8] = read-out: Inhibition at 20 µM [%]
[9] = LOPAC compound at 20uM, plate 2, normalised to DMSO and 2,4-PDCA controls, read-out: Plate 2 (% inhibition)
[10] = LOPAC Plate 4, compound at 20 uM
[11] = read-out: Plate 2 (% inhibition)

For `Br.Br.CN(C)CCCc1cc(C(=O)Nc2ccc(-c3ccncc3)cc2)ccc1O` [GR 55562 dihydrobromide], the “Plate 2 (% conversion)” value [1] was 31.31% and the “Plate 2 (% inhibition)” value [2] was 13.87%.

Work on `O=C(O)CNC(=O)c1c(O)c2ccccc2n(OCC2CC2)c1=O` [Desidustat, desidustat, reference compound] yielded an IC50 of 16.3 ± 0.44 µM.

With `O=[N+]([O-])/C=C/c1ccc2c(c1)OCO2` [MNS] the “Plate 2 (% conversion)” value [1] was 25.80% and the “Plate 2 (% inhibition)” value [2] was 30.34%.

In the case of `OC[C@H]1OC(n2cnc3ccccc32)[C@H](O)[C@@H]1O` (stereo partly drawn) [D-ribofuranosylbenzimidazole], the “Plate 2 (% conversion)” value [1] is reported as 37.89% and the “Plate 2 (% inhibition)” value [2] is reported as -5.77%.

With `Clc1cccc(Cl)c1N=C1NCCN1` [Clonidine hydrochloride] the “Plate 1 (% inhibition)” value [3] was -13.86% and the “Plate 1 (% conversion)” value [4] was 40.53%.

In the case of `CC/C(=C(\c1ccccc1)c1ccc(OCCN(C)C)cc1)c1ccccc1` [Tamoxifen citrate], the “% conversion” value [5] is reported as 11.73% and the inhibition at 20 µM [6] is reported as 72.5%.

With `CCCNC(=O)NS(=O)(=O)c1ccc(Cl)cc1` [Chlorpropamide] the “Plate 1 (% inhibition)” value [3] was -3.59% and the “Plate 1 (% conversion)” value [4] was 37.08%.

`N[C@@H]1CONC1=O` (racemic) [DL-Cycloserine] was tested, and the “Plate 1 (% inhibition)” value [3] was -17.16% and the “Plate 1 (% conversion)” value [4] was 41.64%.

For `CNCCc1c[nH]c2ccc(O)cc12.O=C(O)C(=O)O`, the “Plate 3 (% conversion)” value was 9.71%.

With `CC(=O)OCC1=C(C(=O)O)N2C(=O)[C@@H](NC(=O)Cc3cccs3)[C@H]2SC1` [Cephalothin sodium] the “Plate 1 (% inhibition)” value [3] was 9.86% and the “Plate 1 (% conversion)” value [4] was 32.56%.

For `CN1CCN(C2=Nc3cc(Cl)ccc3Nc3ccccc32)CC1` [Clozapine], the “Plate 1 (% conversion)” value was 39.79% and the “Plate 1 (% inhibition)” value [3] was -11.65%.

With `CC(CN1c2ccccc2Sc2ccccc21)N(C)C` (stereo not drawn) [Promethazine hydrochloride] the “Plate 3 (% conversion)” value [7] was 42.09%.

With `Cl.O[Si](CCCN1CCCCC1)(c1ccc(F)cc1)C1CCCCC1` (stereo not drawn) the “Plate 2 (% conversion)” value [1] was 40.91% and the “Plate 2 (% inhibition)” value [2] was -14.81%.

In the case of `CC(C)(C)OC(=O)NC1[C@H]2CNC[C@@H]12` (stereo partly drawn) [CP-101537], the “Plate 3 (% conversion)” value is reported as 33.25%, the “Plate 5 (% conversion)” value is reported as 36.34% and the “Plate 5 (% inhibition)” value is reported as -0.06%.

For `CC1=C(/C=C/C(C)=C/C=C/C(C)=C/C(=O)O)C(C)(C)CCC1` [Retinoic acid], the “% conversion” value [5] was 30.58% and the inhibition at 20 µM [6] was 17.2%.

For `CN1[C@@H]2CC[C@H]1C[C@@H](OC(c1ccccc1)c1ccccc1)C2` [Benztropine mesylate], the “Plate 1 (% inhibition)” value [3] was -9.74% and the “Plate 1 (% conversion)” value [4] was 39.14%.

For `Clc1ccc2nsnc2c1NC1=NCCN1` [Tizanidine hydrochloride], the “% conversion” value [5] was 37.51%.

For `O.c1cnc2c(c1)ccc1cccnc12` [1,10-Phenanthroline monohydrate, reference compound], the “% conversion” value was 3.10%, the inhibition at 20 µM was 97.8% and the inhibition at 20 µM [8] was 97.8%.

For `Br.NCc1cc(O)no1` [Muscimol hydrobromide], the “Plate 2 (% conversion)” value was 37.87% and the “Plate 2 (% inhibition)” value (20 µM) was -5.71%.

`CC(C)c1c(C(=O)Nc2ccccc2)c(-c2ccccc2)c(-c2ccc(F)cc2)n1CC[C@@H](O)C[C@@H](O)CC(=O)O` [Atorvastatin calcium salt trihydrate] was tested, and the “Plate 1 (% inhibition)” value [3] was 1.55% and the “Plate 5 (% inhibition)” value (plate 5 (Pfitzer), test compounds at fixed 20 μM) was 17.18%.

With `CC(=O)c1ccc2c(c1)N(CCCN(C)C)c1ccccc1S2` [Acepromazine maleate] the “% conversion” value [5] was 29.56%.

With `Cn1c(=O)c2c(ncn2C)n(C)c1=O` [Caffeine] the “Plate 1 (% inhibition)” value [3] was -5.72% and the “Plate 1 (% conversion)” value [4] was 37.79%.

For `Cl.O=C(O)Cc1c[nH]cn1` [Imidazole-4-acetic acid hydrochloride], the “Plate 2 (% conversion)” value was 36.46% and the “Plate 2 (% inhibition)” value (20 µM) was -1.52%.

With `CC(=O)N[C@@H](CS)C(=O)O` [N-Acetyl-L-Cysteine] the “Plate 1 (% inhibition)” value [3] was 6.30% and the “Plate 1 (% conversion)” value [4] was 33.76%.

In the case of `O=C(O)C1CCCNC1` (racemic) [(±)-Nipecotic acid], the “Plate 1 (% conversion)” value is reported as 30.40% and the “Plate 1 (% inhibition)” value is reported as 16.29%.

For `O=C(O)CCc1ccc(NCc2cccc(Oc3ccccc3)c2)cc1` [GW9508], the “Plate 2 (% conversion)” value [1] was 35.17% and the inhibition at 20 µM [9] was 2.34%.

For `CNc1ccc2oc(C[C@H]3O[C@@]4(CC[C@H]3C)O[C@H]([C@H](C)C(=O)c3ccc[nH]3)[C@H](C)C[C@H]4C)nc2c1C(=O)O` [Calcimycin, calcimycin, reference compound], the “Plate 1 (% conversion)” value was 2.02%, the IC50 was 4.19 ± 0.1 µM and the inhibition at 20 µM [8] was 101%.

`CS(=O)(=O)O.Cn1cc(C(F)(F)F)nc1-c1ccc(OCC(O)CNCCOc2ccc(O)c(C(N)=O)c2)cc1` (stereo not drawn) [CGP 20712A methanesulfonate] was tested, and the “Plate 2 (% conversion)” value [1] was 36.56% and the “Plate 2 (% inhibition)” value [2] was -1.81%.

`NCCc1c[nH]cn1` [Histamine dihydrochloride] was tested, and the “Plate 2 (% conversion)” value [1] was 39.28% and the inhibition at 20 µM [9] was -9.92%.

With `CN(C)CCOC(c1ccccc1)c1ccccc1` [Diphenhydramine hydrochloride] the inhibition at 20 µM [9] was -7.73%.

In the case of `O=C(O)CCCCC1CCSS1` (racemic) [(±)-alpha-Lipoic Acid], the “% inhibition” value [10] is reported as 5.35% and the “% conversion” value [5] is reported as 34.64%.

With `COc1ccccc1N1CCN(CCN2C(=O)CC3(CCCC3)CC2=O)CC1.Cl.Cl` [BMY 7378 dihydrochloride] the “Plate 1 (% inhibition)” value [3] was -11.73% and the “Plate 1 (% conversion)” value [4] was 39.81%.

With `CCOC(=O)C1=C(C)NC(C)=C(C(=O)OC)C1c1cccc([N+](=O)[O-])c1` (stereo not drawn) [Nitrendipine] the “Plate 3 (% conversion)” value [7] was 38.78%.

`CC(/C=C/c1cccc(Oc2ccc(F)cc2)c1)N(O)C(N)=O` (stereo not drawn) [BWB70C] was tested, and the “Plate 1 (% inhibition)” value [3] was -3.19% and the “Plate 1 (% conversion)” value [4] was 36.94%.

In the case of `COc1cc(/C=C(\C#N)C(=O)Nc2nnc(C(F)(F)F)s2)ccc1OCc1ccc(C(F)(F)F)cc1C(F)(F)F` [XCT790], the “% conversion” value [5] is reported as 22.43%.

With `CN(C)NC(=O)CCC(=O)O` [Daminozide, daminozide, reference compound] the “IC50 [μM]” value (pH 7.5) was “inactive”.

With `C[N+](C)(C)CC#CCOC(=O)Nc1cccc(Cl)c1.[Cl-]` [McN-A-343] the “Plate 1 (% inhibition)” value [3] was -1.57% and the “Plate 1 (% conversion)” value [4] was 36.40%.

`O=C1CCc2cc(OCCCCc3nnnn3C3CCCCC3)ccc2N1` [Cilostazol] was tested, and the “Plate 1 (% inhibition)” value [3] was -4.97% and the “Plate 1 (% conversion)” value [4] was 37.54%.

In the case of `CC[N+](C)(C)c1cccc(O)c1` [Edrophonium chloride], the “Plate 2 (% conversion)” value is reported as 37.54% and the inhibition at 20 µM [11] is reported as -4.75%.

`COc1ccc(CCN(C)CCc2ccc(OC)c(OC)c2)cc1OC.Cl` [YS-035 hydrochloride] was tested, and the “% inhibition” value [10] was -13.70% and the “% conversion” value [5] was 41.15%.

`CCN1CCc2nc(N)oc2CC1.Cl.Cl` [B-HT 933 dihydrochloride] was tested, and the “Plate 1 (% inhibition)” value [3] was -9.80% and the “Plate 1 (% conversion)” value [4] was 39.16%.

In the case of `CC(C)(C)C(=O)Oc1ccc(S(=O)(=O)Nc2ccccc2C(=O)NCC(=O)[O-])cc1.[Na+]` [Sivelestat sodium salt hydrate], the “Plate 3 (% conversion)” value [7] is reported as 36.62%.

With `N=C(N)SCCc1cnc[nH]1` [Imetit dihydrobromide] the “Plate 3 (% conversion)” value was 29.48%.

With `C=CC1=C(C)c2cc3[nH]c(cc4nc(cc5[nH]c(cc1n2)c(C)c5CCC(=O)O)C(CCC(=O)O)=C4C)c(C)c3C=C` [Protoporphyrin IX disodium] the “% conversion” value [5] was 20.78% and the inhibition at 20 µM [6] was 46%.

In the case of `CN[C@@H]1C[C@@H](c2ccc(Cl)c(Cl)c2)c2ccccc21` [Indatraline hydrochloride], the “Plate 3 (% conversion)” value is reported as 41.79%.

`c1ccc2c(CC3=NCCN3)cccc2c1` [Naphazoline hydrochloride] was tested, and the “Plate 3 (% conversion)” value [7] was 38.59%.

With `NCCCCN` [Putrescine dihydrochloride] the “% conversion” value [5] was 39.89% and the inhibition at 20 µM [6] was -10%.

With `CC(C)C(N)C(=O)OCC(CO)OCn1cnc2c(=O)[nH]c(N)nc21.Cl.O` (stereo not drawn) [Valganciclovir hydrochloride hydrate] the “Plate 2 (% conversion)” value [1] was 38.77% and the “Plate 2 (% inhibition)” value [2] was -8.41%.

For `CO[C@H]1O[C@@H]2O[C@@]3(C)CC[C@H]4[C@H](C)CC[C@@H]([C@H]1C)[C@@]24OO3` [Artemether], the “Plate 1 (% inhibition)” value [3] was -9.16% and the “Plate 1 (% conversion)” value [4] was 38.95%.

`CN(C)CCCN1c2ccccc2Sc2ccc(Cl)cc21` [Chlorpromazine hydrochloride] was tested, and the “Plate 1 (% inhibition)” value [3] was -29.45% and the “Plate 1 (% conversion)” value [4] was 45.76%.

In the case of `OC(CN1CCC(Cc2ccc(F)cc2)CC1)c1ccc(Cl)cc1` (stereo not drawn) [Eliprodil], the “Plate 2 (% conversion)” value [1] is reported as 39.73% and the inhibition at 20 µM [9] is reported as -11.3%.

In the case of `C[N+](C)(C)CCCCCC[N+](C)(C)C` [Hexamethonium bromide], the “Plate 2 (% conversion)” value is reported as 40.56% and the inhibition at 20 µM [11] is reported as -13.8%.

In the case of `CNCC[C@H](Oc1ccc(C(F)(F)F)cc1)c1ccccc1.Cl` [S-(+)-Fluoxetine hydrochloride], the “Plate 2 (% conversion)” value is reported as 45.11% and the “Plate 2 (% inhibition)” value (20 µM) is reported as -27.34%.

For `N#C/C(=C\c1ccc(-c2cc(Cl)ccc2Cl)o1)C(=O)Nc1cccc2ncccc12` [AGK2], the “% conversion” value [5] was 36.60%.

In the case of `CCCCNc1cc(C(=O)O)cc(S(N)(=O)=O)c1Oc1ccccc1` [Bumetanide], the “Plate 1 (% inhibition)” value [3] is reported as 3.08% and the “Plate 1 (% conversion)” value [4] is reported as 34.84%.

From paper PMC7251097, “Aspartate/asparagine-β-hydroxylase: a high-throughput mass spectrometric assay for discovery of small molecule inhibitors” (Scientific Reports, 2020)
